The source of these data is PubChem BioAssay (NCI).

Several values for one entry are separate records, joined by “and”; a condition that tells them apart may be missing. Equal values may be shown once.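 All cell lines were grown in 96-well plates and treated with compound for 48 hours. GI50: concentration for 50% inhibition of growth. TGI marks complete inhibition of growth.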

Holding throughout (assay): NCI anticancer screen, dose series, 48 h
Test [1] concerns SN12C renal.
Test [2] concerns HOP-62 NSCLC.
Test [3] concerns KM12 colon.
Test [4] concerns SF-539 CNS.
The subject of test [5] is NCI-H226 lung.
Test [6] relates to MDA-MB-435.
Test [7] has as its system MDA-N.
For test [8], the system named is KM20L2 colon.
The subject of test [9] is NCI/ADR-RES ovarian.
Test [10] has as its system SK-OV-3 ovarian.

Take `C=C1C(O)C2(O)OCC34C(CC5C(C)=CC(=O)C(O)C5(C)C23)OC(=O)C(OC(=O)C/C=C(\C)CCCCC)C14` (centres undefined): the GI50 is 0.00157 µM in [1]; under 0.001 µM in test [2]; under 0.001 µM in test [3]; under 0.001 µM in test [4]; under 0.001 µM in test [5]; 0.387 µM and 1.46 µM in test [9]. Moreover, the TGI is 0.0201 µM and 0.019 µM and 0.0342 µM in test [3]; 0.00221 µM in [6]; 0.00229 µM and 0.0179 µM in test [7]; 0.199 µM in test [8]; 4.22 µM and 6.42 µM and 11.5 µM in [9].

On to `NC(=O)C(=O)N/N=C1/c2ccccc2CC1C1(O)C(=O)Nc2c(Cl)cc(Cl)cc21` (centres undefined), for which the TGI in test [1], in test [2], in test [3], in test [4], in test [5] and in [10] was over 100 µM in each case. The molecule also came in with a TGI in [8] of over 100 µM.

As for `COc1ccc(-c2cc(=O)c3cc4c(cc3[nH]2)OCO4)c(OC)c1OC`, the TGI in test [1], in [2], in test [3], in test [4], in [5] and in test [10] was over 100 µM throughout. Moreover, in [8], the TGI was over 100 µM.

Take `COc1cc(/C=C/C(=O)O)ccc1C(=O)O/C=C/c1ccccc1`: the TGI in [1], in test [2], in [3], in [4], in test [5] and in [10] was over 100 µM each time. In addition, the TGI in [8] and in [9] was over 100 µM throughout.

Turning to `CCN(CC)CCNc1ccc2nnn3c4ccc(OC)cc4c(=O)c1c23`, the TGI in test [1] turned out to be 19.9 µM; in test [2] it was 23.8 µM; in test [3], 13.9 µM; in [4] it was 17.2 µM; in test [5], 20 µM; in test [10] it was 34.6 µM. In test [8], this molecule yielded a TGI of 20 µM.

As for `O=C(CP(=O)(O)O)c1cccs1`, the TGI in test [1], in test [2], in test [3], in [4], in test [10] and in test [8] was over 100 µM throughout.

On to `CCC(C(=O)O)c1ccc(OCc2ccccc2)cc1` (centres undefined), for which the TGI in [1], in [2], in [3], in [4], in [5] and in test [10] was over 100 µM in each case. Besides, the TGI in [8] was over 100 µM.

With `Cc1cc(C)c2c(=O)n(CN3CC4Nc5ccccc5C4C3)sc2n1` (centres undefined), the TGI in [1] is over 100 µM; in test [2], over 100 µM; in test [3] it was over 100 µM; in test [4] it was 39.8 µM; in test [5], 81.1 µM; in test [10] it was over 100 µM. Also, the TGI is 42.2 µM in test [6], 44.3 µM in test [7] and over 100 µM in [9].

On to `CCSC1=CC(=O)c2nc3ccccc3c3ccnc1c23`, for which the TGI was 8.43 µM in [1]; over 51.3 µM in [2]; 25.2 µM in [3]; 13.2 µM in test [4]; 27.1 µM in test [5]; over 100 µM in test [10]. Further, the TGI in test [6] was 3.43 µM; in [7] it was 4 µM; in [9] it was over 30.1 µM.

For the molecule `COCOc1ccc(OC)cc1`, the TGI in [1], in test [2], in [3], in [4], in test [5] and in [10] was over 100 µM in each case. Moreover, the TGI in test [8] and in test [9] was over 100 µM in each case.

Regarding `CSC1CC2C(CC1(C)O)C2(C)C` (centres undefined), the TGI in test [1], in test [2], in test [3], in test [4], in test [5] and in [10] was over 100 µM in each case. This molecule returned a TGI in test [8] of over 100 µM. Moreover, the GI50 in test [5] is 38.5 µM and > 100 µM.

With `CCCCn1c2c(n(CCCC)c1=S)-c1c(n(CCCC)c(=S)n1CCCC)S[Se][Se]S2`, the TGI is 99.1 µM in test [1]; 35.1 µM in test [2]; over 53.5 µM in test [3]; 12.5 µM in test [4]; 49.4 µM in test [5]; 55.1 µM in test [10]. Besides, the TGI in test [6] came to 39.1 µM; in test [7] it was 36.3 µM; in test [9], 53 µM.

In the case of `CCC12C[N+]3([O-])CCc4c([nH]c5ccccc45)C(C(=O)OC)(c4cc5c(cc4OC)N(C)C4C(O)(C(=O)OC)C(OC(C)=O)C6(CC)C=CCN7CCC54C76)CC(C3)C1O2` (centres undefined), the TGI in test [1] was 24.5 µM; in test [2], over 100 µM; in [3], 15.9 µM; in test [4], 0.821 µM; in [10] it was 7.34 µM; in [8] it was 1.52 µM.

For `C=C1C(=O)OC2/C=C(\CO)C(OC(C)=O)CC(O)/C(C)=C/C(OC(=O)C(C)CC)C12` (centres undefined), the TGI in [1] is 36 µM and 36.6 µM; in test [2] it was over 100 µM; in test [3], 32.5 µM and > 100 µM; in test [4] it was 37.9 µM and 66 µM; in test [5], 59.6 µM; in test [10] it was over 100 µM. Moreover, the TGI in [6] is 47.6 µM; in [7] it was 33.4 µM; in test [8], 58.6 µM; in [9], over 100 µM. In test [3], the GI50 is 17.5 µM and 35.2 µM.

For `O=c1c2ncn(C3CC(O)C(CO)O3)c2nnn1Cc1ccccc1[N+](=O)[O-]` (centres undefined), the TGI in [1], in test [2], in test [3], in [4], in test [5] and in [10] was over 100 µM in each case. Besides, the TGI in test [6], in test [7] and in [9] was over 100 µM each time.

Consider `CN(C)C(CN)CC1=C(CC(CN)N(C)C)CCC1` (centres undefined), for which the TGI in test [1], in test [2], in [3], in test [4], in test [5] and in [10] was over 100 µM in each case. The TGI in [8] and in test [9] was over 100 µM throughout.

For the molecule `C/C(=N/NC(N)=S)c1ccc2ccccc2c1`, the TGI was over 100 µM in test [1]; over 100 µM in test [2]; over 100 µM in test [3]; 44.4 µM in test [4]; over 100 µM in test [5]; 51.6 µM in test [10]. The molecule also returned a TGI in [8] of 80.4 µM.

`C/C(=C\c1ccccc1)C(=O)CCN1CCOCC1`: the TGI in test [1] is 32.8 µM; in test [2] it was over 100 µM; in test [3] it was 31.2 µM; in [4] it was 34.6 µM; in [5], over 65 µM; in test [10], over 100 µM. Also, the values for the TGI in test [8] and in [9] were 36.1 µM and 50.5 µM, respectively.

`COc1cc2c(cc1OC)C1c3ccccc3CCN1CC2` (centres undefined): the TGI in [1] was over 100 µM; in test [2], over 100 µM; in test [3], over 100 µM; in test [4], 75.1 µM; in test [5], 96.1 µM; in test [10], over 100 µM. The TGI in test [6], in test [7] and in test [9] was over 100 µM throughout.

For `CC1(C)C(c2ccccc2)=[N+]([O-])C(C)(C)N1O`, the TGI in test [1], in [2], in [3], in test [4], in [5] and in test [10] was over 10 µM in each case. The TGI in [6], in test [7] and in test [9] was over 10 µM in each case.

With `CC(C)=C[C@@H]1C[C@H](n2cc(C)c(=O)[nH]c2=O)ON1CCO`, the TGI in test [1], in test [2], in [3], in test [4], in test [5] and in test [10] was over 100 µM in each case. Further, the TGI in test [6], in test [7] and in test [9] was over 100 µM in each case.

Consider `Cc1ccc(S(=O)(=O)N2CCSCCSCCSCCSCC2)cc1`, for which the TGI in test [1] was over 96.8 µM; in test [2], over 57 µM; in [3], over 100 µM; in test [4], 43.7 µM; in test [5], over 82.2 µM; in test [10], 46 µM. Besides, the TGI is over 100 µM in test [6], over 100 µM in test [7] and 77.1 µM in test [9].

As to `Cc1ccccc1OC(C)C(=O)NN1C(=O)CC(=O)N(c2ccc(Cl)cc2)C1=S` (centres undefined), the TGI in test [1], in test [2], in test [3], in test [4], in test [5] and in test [10] was over 100 µM throughout. The TGI in [6], in [7] and in test [9] was over 100 µM each time.

Take `N#Cc1nc(-c2cc([N+](=O)[O-])cc([N+](=O)[O-])c2)oc1N`: the TGI in test [1], in test [2], in test [3], in test [4], in [5] and in test [10] was over 10 µM throughout. Moreover, the TGI in test [6], in [7] and in [9] was over 10 µM in each case.

Regarding `COC(=O)c1c(C)cccc1/C=C1/Cc2c(C)cccc2C1=O`, the TGI in test [1], in test [2], in test [3], in test [4], in test [5] and in [10] was over 100 µM in each case. Further, the TGI in [6], in [7] and in [9] was over 100 µM throughout.

Take `CCOC(=O)C1=C(C(C)=O)CSC(c2ccccc2)=N1`: the TGI in test [1], in test [3], in test [4], in [5], in test [10] and in test [8] was over 100 µM each time. The same molecule came in with a TGI in test [9] of over 100 µM.

For the molecule `CC(C)(C)NC(=O)[C@H]1CC[C@H]2[C@@H]3CC=C4NC(=O)CC[C@]4(C)[C@H]3CC[C@]12C`, the TGI in [1], in test [2], in [3], in test [4], in test [5] and in test [10] was over 100 µM each time. Further, the TGI in test [6], in [7] and in test [9] was over 100 µM in each case.
